{"source": "patent US20230028414A1", "about": "“DOSING REGIMEN OF KRAS G12C INHIBITOR” (AMGEN INC., priority 2019, published 2023)", "key": {"[1]": {"assay": "Phase 1 pharmacokinetics of Compound A at 960 mg once daily", "type": "in vivo, human", "settings": "patients"}, "[2]": {"system": "other tumor types (appendiceal cancer, unknown primary cancer)", "assay": "Phase 1 tumor response by RECIST 1.1, patients with other tumor types", "type": "in vivo, human", "settings": "2 evaluable patients with appendiceal cancer", "source_text": "A complete response (CR) is disappearance of all target lesions and any pathological lymph nodes have a reduction in short axis to less than 10 mm. A partial response (PR) is at least a 30% decrease in the sum of diameters of target lesions, taking as reference the baseline sum diameters. A progressive disease is at least a 20% increase in the sum of diameters of target lesions, taking as reference the smallest sum on study (including the baseline sum if that is the smallest on study), and there must be an absolute increase of at least 5 mm in addition to the relative increase of 20%. A stable disease is neither sufficient shrinkage to qualify for PR nor sufficient increase to qualify for PD. […] The tumor size can be measured by radiographic scan.\nFIG. 2. […] Target lesions are measurable lesions defined by RECIST 1.1. Non-measurable lesions, as defined by RECIST 1.1, are considered non-target lesions. A PR is defined as at least a 30% decrease in the sum of the diameters of target lesions using the baseline sum of diameters as a reference. […]\nAs of the data cutoff of Jul. […] The tumor types of two patients were re-classified after the cutoff: 1 patient who was initially recorded as having NSCLC had unknown primary cancer, and 1 patient who was initially recorded as having other tumor types had NSCLC. […]\nTumor response was evaluated using RECIST 1.1. […]"}, "[3]": {"system": "KRAS p.G12C tumors", "assay": "Preclinical anti-tumor efficacy", "type": "in vivo", "settings": "immune-competent mice", "source_text": "KRAS is the most frequently mutated oncogene in human cancer and encodes a key signaling protein in tumors."}, "[4]": {"assay": "Phase 1 safety and treatment exposure, all enrolled patients", "type": "in vivo", "source_text": "A subject undergoing a therapy is monitored for adverse events (AE) during the course of the therapy. A treatment related AE is an AE that is related to the treatment drug. A treatment emergent AE is one that a subject develops undergoing the treatment that was not present prior to start of therapy. In some cases, the treatment emergent AE is not or suspected not to be related to the treatment itself. AEs are characterized as one of five grades—grade 1 is a mile AE; grade 2 is a moderate AE; grade 3 is a severe AE; grade 4 is a life-threatening or disabling AE; and grade 5 is death related to AE.\nThe grading of AEs is based on the guidelines provided in the CTCAE version 5.0. AEs for DLT assessment:\nHematological toxicity: Febrile neutropenia; Neutropenic infection; Grade 4 neutropenia; Grade≥3 thrombocytopenia for>7 days; Grade 3 thrombocytopenia with grade≥2 bleeding; Grade 4 thrombocytopenia; Grade 4 Anemia Non-hematological toxicity Grade≥4, vomiting or diarrhea; Grade 3 diarrhea or grade 3 vomiting lasting more than 3 days despite optimal medical support; Grade≥3 nausea for 3 days or more despite optimal medical support; Any other grade≥3 AE"}, "[5]": {"settings": "76 enrolled patients, all doses"}}, "data": [{"smiles": "C=CC(=O)N1CCN(c2nc(=O)n(-c3c(C)ccnc3C(C)C)c3nc(-c4c(O)cccc4F)c(F)cc23)[C@@H](C)C1", "note": "[Compound A, 4-((S)-4-acryloyl-2-methylpiperazin-1-yl)-6-fluoro-7-(2-fluoro-6-hydroxyphenyl)-1-(2-isopropyl-4-methylpyridin-3-yl)pyrido[2,3-d]pyrimidin-2(1H)-one]", "values": [{"measurement": "24-hour area under the curve", "setting": "[1]", "result": 65300, "unit": "ng·h/mL"}, {"measurement": "time of peak exposure after administration", "setting": "[1]", "result": "around 2 hours"}, {"measurement": "tumor response", "setting": "[2]", "result": "PR (unconfirmed) and SD"}, {"measurement": "anti-tumor effect in combination with immune checkpoint inhibition", "setting": "[3]", "result": "durable cures"}, {"measurement": "deaths related to treatment", "setting": "[4]; 7 deaths among 76 enrolled patients", "result": "none"}, {"measurement": "patients with treatment-related grade 3 AEs", "setting": "[4]; [5]", "result": 7, "unit": "patients"}, {"measurement": "patients with treatment-related grade 3 AEs, percent", "setting": "[4]; [5]", "result": 9.2, "unit": "%"}, {"measurement": "tolerability", "setting": "[4]; consistent across all doses", "result": "well tolerated with mild treatment-related toxicities"}, {"measurement": "treatment-related AEs higher than grade 3 or cumulative toxicities", "setting": "[4]; extended treatment, all doses", "result": "no treatment-related AEs higher than grade 3 or cumulative toxicities were observed"}]}]}
